For this test, the system named is Mycosphaerella graminicola; Anamorph: Septoria tritici; Bayer Code SEPTTR. Nature of the test: Leaf blotch of wheat, foliar fungicide treatment, one day protectant (1DP) or three day curative (3DC). The class given is in vivo, Septoria tritici on wheat plants (variety Yuma). The conditions noted are these: Zymoseptoria tritici, rating of percent disease control.
The mark [1] stands for this setting: 24 h, one day protectant (1DP), read-out: SETTTR 1DP 25 ppm.
Where [2] appears, read: 24 h, one day protectant (1DP), read-out: SEPTTR 1DP 100 ppm.
[3] abbreviates: 72 h, three day curative (3DC), read-out: SEPTTR 3DC 25 ppm.
Where [4] appears, read: 72 h, three day curative (3DC), read-out: SEPTTR 3DC 100 ppm.

Like-named read-outs stand apart in the source and are kept apart here.

As for `CCOC(=O)Nc1nc(OC(C)c2ccc(F)cc2)ncc1F` (stereo not drawn) [Compound 749], the pest or weed control at 25 ppm is, setting by setting: under setting [1], 76 to 100%; under setting [3], 76 to 100%. Also, the pest or weed control at 100 ppm is 76 to 100% under setting [2] and 76 to 100% under setting [4].
As to `Fc1ccccc1CNc1nc(OCc2ccccc2)ncc1F` [Compound 750], the pest or weed control at 25 ppm by setting is: under setting [1], 26 to 50%; under setting [3], 26 to 50%. Also, the pest or weed control at 100 ppm by setting is: under setting [2], 76 to 100%; under setting [4], 51 to 75%.
As for `CN1CCCC/C1=N\c1nc(OCc2ccn(C)n2)ncc1F` [Compound 751], the pest or weed control at 25 ppm reads like this: under setting [1], 51 to 75%; under setting [3], 26 to 50%. Moreover, the pest or weed control at 100 ppm under setting [2] is 76 to 100% and the pest or weed control at 100 ppm under setting [4] was in the range of 76 to 100%.
As to `CCOCCOc1cccc(COc2ncc(F)c(N)n2)c1` [Compound 752], the pest or weed control at 25 ppm is 76 to 100% under setting [1] and 76 to 100% under setting [3]. For the same compound, the pest or weed control at 100 ppm under setting [2] was in the range of 76 to 100% and the pest or weed control at 100 ppm under setting [4] lay within 76 to 100%.
With `CCOCNc1nc(OCc2ccccc2)ncc1F` [Compound 753], the pest or weed control at 25 ppm lay in the range of 76 to 100% under setting [1] and 76 to 100% under setting [3]. Moreover, the pest or weed control at 100 ppm reads like this: under setting [2], 76 to 100%; under setting [4], 76 to 100%.
For `COc1cccc(COc2ncc(F)c(NN3CCOCC3)n2)c1` [Compound 754], the pest or weed control at 25 ppm lay within 0 to 25% under setting [1] and 0 to 25% under setting [3]. Besides, the pest or weed control at 100 ppm reads like this: under setting [2], 0 to 25%; under setting [4], 26 to 50%.
In the case of `Cc1ccc(COc2ncc(F)c(N(N)C3CCCCC3)n2)cc1` [Compound 755], the pest or weed control at 25 ppm is, setting by setting: under setting [1], 26 to 50%; under setting [3], 0 to 25%. Also, the pest or weed control at 100 ppm reads like this: under setting [2], 26 to 50%; under setting [4], 0 to 25%.
Turning to `Nc1nc(OCc2ccc(Br)cc2)ncc1F` [Compound 757], the pest or weed control at 25 ppm lay within 76 to 100% under setting [1] and 76 to 100% under setting [3]. For the same compound, the pest or weed control at 100 ppm lay in the range of 76 to 100% under setting [2] and 76 to 100% under setting [4].
In the case of `O=[N+]([O-])c1ccccc1SNc1nc(OCc2cccc(C(F)(F)F)c2F)ncc1F` [Compound 758], the pest or weed control at 25 ppm by setting is: under setting [1], 26 to 50%; under setting [3], 26 to 50%. The pest or weed control at 100 ppm under setting [2] lay within 76 to 100% and the pest or weed control at 100 ppm under setting [4] lay in the range of 51 to 75%.
For the compound `O=C(Nc1nc(OCc2cccs2)ncc1F)c1ccccc1` [Compound 759], the pest or weed control at 25 ppm is 51 to 75% under setting [1] and 26 to 50% under setting [3]. The pest or weed control at 100 ppm by setting is: under setting [2], 76 to 100%; under setting [4], 76 to 100%.
On to `CCCCCOC(=O)Nc1nc(OCc2cccc(F)c2)ncc1F` [Compound 762], for which the pest or weed control at 25 ppm reads like this: under setting [1], 76 to 100%; under setting [3], 76 to 100%. The pest or weed control at 100 ppm is 76 to 100% under setting [2] and 76 to 100% under setting [4].
For `Nc1nc(OCc2cccnc2)ncc1F` [Compound 763], the pest or weed control at 25 ppm is, setting by setting: under setting [1], 76 to 100%; under setting [3], 76 to 100%. Moreover, the pest or weed control at 100 ppm reads like this: under setting [2], 76 to 100%; under setting [4], 76 to 100%.
Turning to `CC(C)(C)OC(=O)NNc1nc(OCc2ccccc2)ncc1F` [Compound 765], the pest or weed control at 25 ppm is, setting by setting: under setting [1], 0 to 25%; under setting [3], 0 to 25%. The pest or weed control at 100 ppm was 26 to 50% under setting [2] and 0 to 25% under setting [4].
On to `Cc1ccc(COc2ncc(F)c(NNc3ccccc3)n2)cc1` [Compound 766], for which the pest or weed control at 25 ppm by setting is: under setting [1], 0 to 25%; under setting [3], 0 to 25%. Further, the pest or weed control at 100 ppm lay in the range of 51 to 75% under setting [2] and 26 to 50% under setting [4].
For the compound `COc1cccc(C(=O)Oc2ncc(F)c(/N=C/N(C)C)n2)c1` [Compound 767], the pest or weed control at 25 ppm under setting [1] fell in the range of 76 to 100% and the pest or weed control at 25 ppm under setting [3] lay within 76 to 100%. The pest or weed control at 100 ppm fell in the range of 76 to 100% under setting [2] and 76 to 100% under setting [4].
As for `Nc1nc(OCCCc2ccncc2)ncc1F` [Compound 768], the pest or weed control at 25 ppm runs as follows: under setting [1], 0 to 25%; under setting [3], 0 to 25%. Further, the pest or weed control at 100 ppm is 26 to 50% under setting [2] and 26 to 50% under setting [4].
Regarding `COc1ccc(COc2ncc(F)c(NC(=S)Nc3ccccc3F)n2)cc1F` [Compound 769], the pest or weed control at 25 ppm is, setting by setting: under setting [1], 51 to 75%; under setting [3], 0 to 25%. In addition, the pest or weed control at 100 ppm under setting [2] lay in the range of 76 to 100% and the pest or weed control at 100 ppm under setting [4] is 76 to 100%.
Regarding `COc1cccc(COc2ncc(F)c(NC(C)=S)n2)c1` [Compound 770], the pest or weed control at 25 ppm by setting is: under setting [1], 76 to 100%; under setting [3], 76 to 100%. Further, the pest or weed control at 100 ppm under setting [2] is 76 to 100% and the pest or weed control at 100 ppm under setting [4] is 76 to 100%.
For the compound `CC(Oc1ncc(F)c(NC(=O)OCc2ccccc2)n1)c1ccc(F)cc1` (stereo not drawn) [Compound 771], the pest or weed control at 25 ppm under setting [1] lay in the range of 76 to 100% and the pest or weed control at 25 ppm under setting [3] is 76 to 100%. The pest or weed control at 100 ppm runs as follows: under setting [2], 76 to 100%; under setting [4], 76 to 100%.
As to `Cc1nc(C)c(COc2ncc(F)c(N)n2)s1` [Compound 772], the pest or weed control at 25 ppm was in the range of 76 to 100% under setting [1] and 76 to 100% under setting [3]. Further, the pest or weed control at 100 ppm lay within 76 to 100% under setting [2] and 76 to 100% under setting [4].
As to `COc1cccc(COc2ncc(F)c(NC(=O)Cc3ccccc3)n2)c1` [Compound 773], the pest or weed control at 25 ppm is, setting by setting: under setting [1], 26 to 50%; under setting [3], 0 to 25%. The pest or weed control at 100 ppm under setting [2] lay within 76 to 100% and the pest or weed control at 100 ppm under setting [4] lay within 0 to 25%.
`CCCCCCOc1ncc(F)c(NC(=O)Nc2ccsc2)n1` [Compound 774]: the pest or weed control at 25 ppm reads like this: under setting [1], 0 to 25%; under setting [3], 0 to 25%. Moreover, the pest or weed control at 100 ppm was in the range of 0 to 25% under setting [2] and 0 to 25% under setting [4].
In the case of `CC(C)(C)NNc1nc(OCc2ccc(F)cc2)ncc1F` [Compound 775], the pest or weed control at 25 ppm by setting is: under setting [1], 0 to 25%; under setting [3], 0 to 25%. Besides, the pest or weed control at 100 ppm reads like this: under setting [2], 0 to 25%; under setting [4], 0 to 25%.
Turning to `CCCNC(=O)Nc1nc(OCc2cccs2)ncc1F` [Compound 776], the pest or weed control at 25 ppm under setting [1] was in the range of 0 to 25% and the pest or weed control at 25 ppm under setting [3] is 0 to 25%. The pest or weed control at 100 ppm runs as follows: under setting [2], 0 to 25%; under setting [4], 0 to 25%.
`Cc1ccc(COc2ncc(F)c(NC(=S)Nc3ccccc3F)n2)cc1` [Compound 778]: the pest or weed control at 25 ppm lay within 76 to 100% under setting [1] and 76 to 100% under setting [3]. Also, the pest or weed control at 100 ppm runs as follows: under setting [2], 76 to 100%; under setting [4], 76 to 100%.
In the case of `OCNc1nc(OCc2cccc(F)c2)ncc1F` [Compound 780], the pest or weed control at 25 ppm under setting [1] was 76 to 100% and the pest or weed control at 25 ppm under setting [3] was 76 to 100%. Also, the pest or weed control at 100 ppm under setting [2] was in the range of 76 to 100% and the pest or weed control at 100 ppm under setting [4] was in the range of 76 to 100%.
`N#Cc1cccc(COc2ncc(F)c(NC(=S)Nc3ccccc3F)n2)c1` [Compound 781]: the pest or weed control at 25 ppm is, setting by setting: under setting [1], 0 to 25%; under setting [3], 0 to 25%. In addition, the pest or weed control at 100 ppm is, setting by setting: under setting [2], 51 to 75%; under setting [4], 26 to 50%.
For `CCOC(=O)COC(=O)Nc1nc(OCc2cccc(C#N)c2)ncc1F` [Compound 782], the pest or weed control at 25 ppm under setting [1] lay in the range of 0 to 25% and the pest or weed control at 25 ppm under setting [3] was 26 to 50%. The pest or weed control at 100 ppm by setting is: under setting [2], 26 to 50%; under setting [4], 76 to 100%.
With `CC(C)Oc1ccc(COc2ncc(F)c(N)n2)cc1` [Compound 783], the pest or weed control at 25 ppm reads like this: under setting [1], 76 to 100%; under setting [3], 76 to 100%. Moreover, the pest or weed control at 100 ppm by setting is: under setting [2], 76 to 100%; under setting [4], 76 to 100%.
On to `CNc1nc(OCc2ccc(F)cc2)ncc1F` [Compound 784], for which the pest or weed control at 25 ppm lay in the range of 0 to 25% under setting [1] and 0 to 25% under setting [3]. The pest or weed control at 100 ppm lay in the range of 0 to 25% under setting [2] and 0 to 25% under setting [4].
On to `COc1cc(F)cc(F)c1COc1ncc(F)c(N)n1` [Compound 787], for which the pest or weed control at 25 ppm lay within 76 to 100% under setting [1] and 76 to 100% under setting [3]. Also, the pest or weed control at 100 ppm under setting [2] was 76 to 100% and the pest or weed control at 100 ppm under setting [4] lay in the range of 76 to 100%.
With `CC(C)COC(=O)Oc1ncc(F)c(/N=C/N(C)C)n1` [Compound 788], the pest or weed control at 25 ppm under setting [1] was in the range of 76 to 100% and the pest or weed control at 25 ppm under setting [3] was 76 to 100%. Moreover, the pest or weed control at 100 ppm under setting [2] is 76 to 100% and the pest or weed control at 100 ppm under setting [4] fell in the range of 76 to 100%.
As for `CN(C)/C=N/c1nc(OC(=O)OCc2ccccc2Cl)ncc1F` [Compound 789], the pest or weed control at 25 ppm runs as follows: under setting [1], 76 to 100%; under setting [3], 76 to 100%. Also, the pest or weed control at 100 ppm lay in the range of 76 to 100% under setting [2] and 76 to 100% under setting [4].
For `CCCCOc1cccc(C(C)Oc2ncc(F)c(N)n2)c1` (stereo not drawn) [Compound 790], the pest or weed control at 25 ppm by setting is: under setting [1], 76 to 100%; under setting [3], 76 to 100%. In addition, the pest or weed control at 100 ppm under setting [2] fell in the range of 76 to 100% and the pest or weed control at 100 ppm under setting [4] was in the range of 76 to 100%.
As to `O=C(Cc1ccccc1)Nc1nc(OCc2ccccc2)ncc1F` [Compound 792], the pest or weed control at 25 ppm reads like this: under setting [1], 76 to 100%; under setting [3], 26 to 50%. Moreover, the pest or weed control at 100 ppm is, setting by setting: under setting [2], 76 to 100%; under setting [4], 51 to 75%.
Regarding `CC(C)C(=O)NNc1nc(OCc2ccc(F)cc2)ncc1F` [Compound 793], the pest or weed control at 25 ppm under setting [1] lay within 0 to 25% and the pest or weed control at 25 ppm under setting [3] is 0 to 25%. Besides, the pest or weed control at 100 ppm is, setting by setting: under setting [2], 0 to 25%; under setting [4], 0 to 25%.

For the origin of these results see patent US9204653B2, “5-fluoro pyrimidine derivatives” (DOW AGROSCIENCES LLC, priority 2008, dated 2015).
